Results taken from ChEMBL document CHEMBL1909046, “DrugMatrix in vitro pharmacology data”.

How the values were obtained:
[1] = biological target: T1, C-X-C chemokine receptor type 1 (Homo sapiens, UniProt P25024); further: in other assays of this panel Not Active means under 50% inhibition at 10 µM
T1 sequence (P25024 whole entry): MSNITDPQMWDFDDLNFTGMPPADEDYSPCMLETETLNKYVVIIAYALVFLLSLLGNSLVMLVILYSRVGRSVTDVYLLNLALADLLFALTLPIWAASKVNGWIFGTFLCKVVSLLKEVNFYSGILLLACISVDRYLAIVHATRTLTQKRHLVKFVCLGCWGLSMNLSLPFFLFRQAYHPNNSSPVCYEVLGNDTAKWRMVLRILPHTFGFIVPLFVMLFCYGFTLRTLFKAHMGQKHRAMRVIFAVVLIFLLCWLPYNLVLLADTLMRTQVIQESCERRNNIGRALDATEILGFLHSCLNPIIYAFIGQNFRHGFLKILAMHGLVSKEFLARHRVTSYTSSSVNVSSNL

[2] = biological target: T2, Endothelin-1 receptor (Homo sapiens, UniProt P25101); format: cell membranes, Membrane; details: cho-k1; further: in other assays of this panel Not Active means under 50% inhibition at 10 µM
T2 sequence (P25101 whole entry): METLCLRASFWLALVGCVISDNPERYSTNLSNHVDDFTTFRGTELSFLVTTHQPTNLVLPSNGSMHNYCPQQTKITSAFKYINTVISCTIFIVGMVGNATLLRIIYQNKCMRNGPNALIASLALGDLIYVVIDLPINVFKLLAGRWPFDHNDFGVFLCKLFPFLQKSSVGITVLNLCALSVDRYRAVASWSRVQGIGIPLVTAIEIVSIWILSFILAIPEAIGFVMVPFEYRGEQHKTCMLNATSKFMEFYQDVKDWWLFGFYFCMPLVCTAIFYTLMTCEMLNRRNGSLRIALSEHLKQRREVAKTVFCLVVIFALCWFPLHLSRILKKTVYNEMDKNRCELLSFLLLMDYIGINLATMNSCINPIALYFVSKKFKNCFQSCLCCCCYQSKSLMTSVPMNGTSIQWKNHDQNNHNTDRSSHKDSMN

[3] = biological target: T3, 5-hydroxytryptamine receptor 2C (Homo sapiens, UniProt P28335); assay: DRUGMATRIX: Serotonin (5-Hydroxytryptamine) 5-HT2C radioligand binding (ligand: [3H] Mesulergine); format: cell membranes, CHO-K1, Membrane; details: Not Active = under 50% inhibition at 10 µM
T3 sequence (P28335 whole entry): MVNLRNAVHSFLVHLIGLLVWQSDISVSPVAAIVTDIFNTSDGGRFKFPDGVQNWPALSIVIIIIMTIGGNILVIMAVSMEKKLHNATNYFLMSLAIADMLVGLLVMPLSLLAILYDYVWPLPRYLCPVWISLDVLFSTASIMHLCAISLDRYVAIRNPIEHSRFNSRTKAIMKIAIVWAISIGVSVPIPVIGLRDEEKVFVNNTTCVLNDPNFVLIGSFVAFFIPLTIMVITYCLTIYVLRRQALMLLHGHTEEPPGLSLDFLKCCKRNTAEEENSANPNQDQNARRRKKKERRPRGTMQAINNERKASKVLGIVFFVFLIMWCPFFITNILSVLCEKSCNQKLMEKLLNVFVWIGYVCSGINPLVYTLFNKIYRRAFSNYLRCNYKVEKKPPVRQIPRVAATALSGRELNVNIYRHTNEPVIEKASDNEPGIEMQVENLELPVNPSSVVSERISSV

[4] = biological target: T4, Polyunsaturated fatty acid lipoxygenase ALOX15 (Oryctolagus cuniculus, UniProt P12530); assay: biochemical; format: tissue-based, Reticulocytes;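 further: inhibition of 15-lipoxygenase enzyme activity measured with linoleic acid as the substrate; in other assays of this panel Not Active means under 50% inhibition at 10 µM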
T4 sequence (P12530 whole entry): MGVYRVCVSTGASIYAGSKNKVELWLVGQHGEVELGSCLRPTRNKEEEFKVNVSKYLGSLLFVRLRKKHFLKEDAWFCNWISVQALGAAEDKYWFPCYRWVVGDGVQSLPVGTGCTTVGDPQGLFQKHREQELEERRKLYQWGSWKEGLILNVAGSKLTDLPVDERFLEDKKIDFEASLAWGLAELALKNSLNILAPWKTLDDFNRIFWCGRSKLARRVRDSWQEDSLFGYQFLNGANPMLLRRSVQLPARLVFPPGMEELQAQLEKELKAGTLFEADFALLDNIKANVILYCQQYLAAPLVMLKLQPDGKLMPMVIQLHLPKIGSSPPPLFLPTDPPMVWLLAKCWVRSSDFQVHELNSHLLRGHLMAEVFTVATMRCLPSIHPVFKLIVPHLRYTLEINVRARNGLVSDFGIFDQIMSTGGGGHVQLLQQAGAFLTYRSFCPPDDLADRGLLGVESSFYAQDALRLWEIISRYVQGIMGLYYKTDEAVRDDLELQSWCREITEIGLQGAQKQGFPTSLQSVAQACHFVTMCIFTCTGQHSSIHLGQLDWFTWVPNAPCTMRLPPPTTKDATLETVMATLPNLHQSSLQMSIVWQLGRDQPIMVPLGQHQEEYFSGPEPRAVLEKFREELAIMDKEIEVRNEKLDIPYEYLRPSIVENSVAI

[5] = biological target: T5, Leukotriene C4 synthase (Cavia porcellus, UniProt A6XA80); assay: biochemical; format: tissue-based, Lung;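 further: enzyme inhibition assay of leukotriene C4 synthase, using LTA4 as the substrate; in other assays of this panel Not Active means under 50% inhibition at 10 µM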
T5 sequence (A6XA80 whole entry): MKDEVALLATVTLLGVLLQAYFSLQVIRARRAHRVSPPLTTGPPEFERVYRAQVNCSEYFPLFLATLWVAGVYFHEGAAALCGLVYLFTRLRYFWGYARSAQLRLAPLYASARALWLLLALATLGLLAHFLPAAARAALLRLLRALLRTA

[6] = biological target: Acetylcholinesterase (Homo sapiens, UniProt P22303); assay: DRUGMATRIX: Acetylcholinesterase enzyme inhibition (substrate: acetylthiocholine); format: cell-based, HEK293; details: hek293; Not Active = under 50% inhibition at 10 µM
Acetylcholinesterase, sequence (P22303 whole entry): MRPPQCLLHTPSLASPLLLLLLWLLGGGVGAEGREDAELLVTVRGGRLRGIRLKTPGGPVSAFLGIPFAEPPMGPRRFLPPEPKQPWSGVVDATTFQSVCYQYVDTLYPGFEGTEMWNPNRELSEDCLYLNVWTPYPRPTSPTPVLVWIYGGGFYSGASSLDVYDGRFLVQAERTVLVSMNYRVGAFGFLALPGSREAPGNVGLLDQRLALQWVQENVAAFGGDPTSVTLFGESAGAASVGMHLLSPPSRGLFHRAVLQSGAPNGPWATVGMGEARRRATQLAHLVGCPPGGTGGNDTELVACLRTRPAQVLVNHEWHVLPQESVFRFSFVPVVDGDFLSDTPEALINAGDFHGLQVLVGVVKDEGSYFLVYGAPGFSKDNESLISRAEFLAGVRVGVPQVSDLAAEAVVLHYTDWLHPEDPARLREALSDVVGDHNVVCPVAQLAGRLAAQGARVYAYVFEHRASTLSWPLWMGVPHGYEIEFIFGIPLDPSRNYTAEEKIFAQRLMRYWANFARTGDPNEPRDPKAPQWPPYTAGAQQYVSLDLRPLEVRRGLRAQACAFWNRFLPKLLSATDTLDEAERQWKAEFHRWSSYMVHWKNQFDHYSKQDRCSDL

[7] = biological target: Protein kinase C alpha type (Homo sapiens, UniProt P17252); format: cell-based; details: sf9
[8] = biological target: T6, Alpha-1B adrenergic receptor (Rattus norvegicus, UniProt P15823); assay: DRUGMATRIX: Alpha-1B adrenergic receptor radioligand binding (ligand: prazosin); format: cell membranes, Wistar, Liver, Membrane; details: Not Active = under 50% inhibition at 10 µM
T6 sequence (P15823 whole entry): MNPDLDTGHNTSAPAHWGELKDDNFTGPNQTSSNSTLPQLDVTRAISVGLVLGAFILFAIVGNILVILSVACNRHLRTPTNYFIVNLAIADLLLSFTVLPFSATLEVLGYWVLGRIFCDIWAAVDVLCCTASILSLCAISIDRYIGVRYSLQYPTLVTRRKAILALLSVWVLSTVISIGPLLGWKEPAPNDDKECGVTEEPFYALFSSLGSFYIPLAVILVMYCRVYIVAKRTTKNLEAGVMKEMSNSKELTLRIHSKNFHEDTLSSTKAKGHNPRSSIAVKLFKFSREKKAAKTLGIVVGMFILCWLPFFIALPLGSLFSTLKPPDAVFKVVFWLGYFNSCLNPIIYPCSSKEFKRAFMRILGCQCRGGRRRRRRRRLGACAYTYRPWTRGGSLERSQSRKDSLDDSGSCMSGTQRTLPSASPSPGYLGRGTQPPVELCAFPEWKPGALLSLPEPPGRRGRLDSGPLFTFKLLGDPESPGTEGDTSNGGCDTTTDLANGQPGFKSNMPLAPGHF

[9] = DRUGMATRIX: Atrial Natriuretic Factor (ANF) radioligand binding (ligand: [125I] ANF (rat)); format: cell membranes, Cavia porcellus, Dunkin-Hartley, Adrenal gland, Membrane; details: Not Active = under 50% inhibition at 10 µM

CC1=C(/C=C/C(C)=C/C=C/C(C)=C\C(=O)O)C(C)(C)CCC1 [ISOTRETINOIN]
IC50 [1]: Not Active | IC50 [2]: Not Active | IC50 ([3]; cho-k1): Not Active | IC50 ([4]; reticulocytes): Not Active | IC50 [5]: Not Active | IC50 [6]: Not Active | IC50 [7]: Not Active | IC50 [8]: Not Active | IC50 [9]: Not Active | Ki [9]: Not Active

CO[C@@H]1[C@@H](O[C@@H]2O[C@H](C)[C@@H](O[C@H]3C[C@@](C)(O)[C@@H](OC(=O)CC(C)C)[C@H](C)O3)[C@H](N(C)C)[C@H]2O)[C@@H](CC=O)C[C@@H](C)[C@@H](O)/C=C/C=C/C[C@@H](C)OC(=O)C[C@H]1O [KITASAMYCIN]
IC50 [1]: Not Active | IC50 [2]: Not Active | IC50 ([3]; cho-k1): Not Active | IC50 ([4]; reticulocytes): Not Active | IC50 [5]: Not Active | IC50 [6]: Not Active | IC50 [7]: Not Active | IC50 [8]: Not Active | IC50 [9]: Not Active | Ki [9]: Not Active

CC(CCc1ccccc1)NCC(O)c1ccc(O)c(C(N)=O)c1 (configuration not stated) [LABETALOL]
IC50 [1]: Not Active | IC50 [2]: Not Active | IC50 ([3]; cho-k1): Not Active | IC50 ([4]; reticulocytes): Not Active | IC50 [5]: Not Active | IC50 [6]: Not Active | IC50 [7]: Not Active | IC50 ([8]; read-out: IC50): 0.583 µM | Ki ([8]; read-out: Ki): 0.323 µM | IC50 [9]: Not Active | Ki [9]: Not Active

Nc1nnc(-c2cccc(Cl)c2Cl)c(N)n1 [LAMOTRIGINE]
IC50 [1]: Not Active | IC50 [2]: Not Active | IC50 ([3]; cho-k1): Not Active | IC50 ([4]; reticulocytes): Not Active | IC50 [5]: Not Active | IC50 [6]: Not Active | IC50 [7]: Not Active | IC50 [8]: Not Active | IC50 [9]: Not Active | Ki [9]: Not Active

CCC[C@@H]1C[C@@H](C(=O)N[C@@H]([C@H]2O[C@H](SC)[C@H](O)[C@@H](O)[C@H]2O)[C@@H](C)O)N(C)C1 [LINCOMYCIN]
IC50 [1]: Not Active | IC50 [2]: Not Active | IC50 ([3]; cho-k1): Not Active | IC50 ([4]; reticulocytes): Not Active | IC50 [5]: Not Active | IC50 [6]: Not Active | IC50 [7]: Not Active | IC50 [8]: Not Active | IC50 [9]: Not Active | Ki [9]: Not Active

NCCCC[C@H](N[C@@H](CCc1ccccc1)C(=O)O)C(=O)N1CCC[C@H]1C(=O)O [LISINOPRIL ANHYDROUS]
IC50 [1]: Not Active | IC50 [2]: Not Active | IC50 ([3]; cho-k1): Not Active | IC50 ([4]; reticulocytes): Not Active | IC50 [5]: Not Active | IC50 [6]: Not Active | IC50 [7]: Not Active | IC50 [8]: Not Active | IC50 [9]: Not Active | Ki [9]: Not Active

COS(C)(=O)=O [METHANESULFONIC ACID METHYL ESTER]
IC50 [1]: Not Active | IC50 [2]: Not Active | IC50 ([3]; cho-k1): Not Active | IC50 ([4]; reticulocytes): Not Active | IC50 [5]: Not Active | IC50 [6]: Not Active | IC50 [7]: Not Active | IC50 [8]: Not Active | IC50 [9]: Not Active | Ki [9]: Not Active

COC(=O)c1ccc(O)cc1 [METHYLPARABEN]
IC50 [1]: Not Active | IC50 [2]: Not Active | IC50 ([3]; cho-k1): Not Active | IC50 ([4]; reticulocytes): Not Active | IC50 [5]: Not Active | IC50 [6]: Not Active | IC50 [7]: Not Active | IC50 [8]: Not Active | IC50 [9]: Not Active | Ki [9]: Not Active

C[C@](N)(Cc1ccc(O)cc1)C(=O)O [METYROSINE]
IC50 [1]: Not Active | IC50 [2]: Not Active | IC50 ([3]; cho-k1): Not Active | IC50 ([4]; reticulocytes): Not Active | IC50 [5]: Not Active | IC50 [6]: Not Active | IC50 [7]: Not Active | IC50 [8]: Not Active | IC50 [9]: Not Active | Ki [9]: Not Active

Clc1ccc(C(c2ccccc2Cl)C(Cl)Cl)cc1 (configuration not stated) [MITOTANE]
IC50 [1]: Not Active | IC50 [2]: Not Active | IC50 ([3]; cho-k1): Not Active | IC50 ([4]; reticulocytes): Not Active | IC50 [5]: Not Active | IC50 [6]: Not Active | IC50 [7]: Not Active | IC50 [8]: Not Active | IC50 [9]: Not Active | Ki [9]: Not Active

COc1c(C)c2c(c(O)c1C/C=C(\C)CCC(=O)OCCN1CCOCC1)C(=O)OC2 [MYCOPHENOLATE MOFETIL]
IC50 [1]: Not Active | IC50 [2]: Not Active | IC50 ([3]; cho-k1): Not Active | IC50 ([4]; reticulocytes): Not Active | IC50 [5]: Not Active | IC50 [6]: Not Active | IC50 [7]: Not Active | IC50 [8]: Not Active | IC50 [9]: Not Active | Ki [9]: Not Active

COC(=O)C1=C(C)NC(C)=C(C(=O)OC)C1c1ccccc1[N+](=O)[O-] [NIFEDIPINE]
IC50 [1]: Not Active | IC50 [2]: Not Active | IC50 ([3]; read-out: IC50): 18.3 µM | Ki ([3]; read-out: Ki): 9.57 µM | IC50 ([4]; read-out: IC50): 15.1 µM | IC50 [5]: Not Active | IC50 [6]: Not Active | IC50 [7]: Not Active | IC50 [8]: Not Active | IC50 [9]: Not Active | Ki [9]: Not Active
